“Also recorded” adds a separate entry of the source.
Tests used:
[1] = test system: phosphorylated Ser-129-α-synuclein; experiment: Immunohistochemistry of phosphorylated Ser-129-α-synuclein in brain sections of PFF-injected mice; format: in vivo, mouse
SENP-1 = biological target: T1, SENP-1 (Mus musculus, UniProt P59110); experiment: Western blot of SENP-1 in brain tissue extracts of PFF-injected mice; format: in vivo; conditions: vs PFF only
T1 construct: from tissue; host or cells: mouse brain: midbrain (MB) and striatum (STR) extracts
T1 sequence (P59110 1-640): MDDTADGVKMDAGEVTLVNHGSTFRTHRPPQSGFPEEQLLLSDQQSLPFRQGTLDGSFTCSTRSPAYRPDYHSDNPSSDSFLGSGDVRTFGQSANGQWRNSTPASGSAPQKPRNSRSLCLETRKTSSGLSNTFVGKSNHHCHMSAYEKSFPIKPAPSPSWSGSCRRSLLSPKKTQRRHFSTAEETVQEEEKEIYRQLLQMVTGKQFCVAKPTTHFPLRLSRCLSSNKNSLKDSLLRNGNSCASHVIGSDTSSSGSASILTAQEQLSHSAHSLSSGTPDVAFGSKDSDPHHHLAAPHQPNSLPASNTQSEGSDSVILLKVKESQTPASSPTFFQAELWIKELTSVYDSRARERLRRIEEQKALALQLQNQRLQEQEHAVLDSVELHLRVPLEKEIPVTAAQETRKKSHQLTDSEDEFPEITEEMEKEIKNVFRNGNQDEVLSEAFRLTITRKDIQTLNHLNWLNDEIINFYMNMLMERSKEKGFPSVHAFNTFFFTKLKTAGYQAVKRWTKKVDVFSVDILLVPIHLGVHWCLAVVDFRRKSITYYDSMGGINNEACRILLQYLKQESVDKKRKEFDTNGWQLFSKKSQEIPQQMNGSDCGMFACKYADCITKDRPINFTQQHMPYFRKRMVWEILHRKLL
Protocol: A mouse model of Parkinson's disease is C57BL/6 male or female mice (50% each) injected with 5 μg of mouse PFF at 12 months old, followed by a treatment below for 6-7 weeks: • 1) without PFF injection, followed by vehicle (control, n=7); • 2) PFF injection, followed by vehicle (PFF only: control, n=8); • 3) PFF injection, followed by daily 10 mg/kg Momordin gavage (n=7-8); • 4) PFF injection, followed by daily 50 mg/kg Momordin gavage (n=7-8).
Immunoblot Analyses. A total of three protein extractions were performed. In the first extraction, a gentle RIPA buffer containing the low concentration of detergent (25 mM Tris-HCL, 150 mM NaCl, 1% NP-40, 1% sodium deoxycholate and 0.1% SDS) was added with phosphatase inhibitors (100 μL for 10 mL) and 5 mM EDTA. The mixture was sonicated and centrifuged at 14,000 rpm for 10 min. The supernatant was collected for measuring the levels of phosphorylated α-syn, SENP-1 or SUMO-1 conjugated proteins for different groups. […] The primary antibodies pertaining to each protein analyzed were diluted at 1:1000 (p-Ser-129-α-synuclein, Cell signaling; SENP-1, SAB4501345, EMD) and incubated at 4° C. overnight. […] ImageJ was used to analyze specific bands on each blot and measured against the loading control (β-actin) for normalizing each band intensity.

[2] = both 10 and 50 mg/kg oral, PFF-injected mice, vs PFF only

CC1(C)CC[C@]2(C(=O)O)CC[C@]3(C)C(=CC[C@@H]4[C@@]5(C)CC[C@H](O[C@@H]6O[C@H](C(=O)O)[C@@H](O)[C@H](O[C@@H]7OC[C@@H](O)[C@H](O)[C@H]7O)[C@H]6O)C(C)(C)[C@@H]5CC[C@]43C)[C@@H]2C1 [Momordin lc]
accumulation of phosphorylated alpha-synuclein in multiple brain regions ([1]; 10 or 50 mg/kg oral for 6-7 weeks, 15-16 month-old mice, 3-4 months after PFF injection): sufficient to prevent the accumulation; also recorded: effective to prevent the accumulation
level of phospho-α-synuclein in the SNc (IHC) [1, 2]: significantly reduced
level of phospho-α-synuclein in the striatum (IHC) [1, 2]: significantly reduced
PFF-induced SENP-1 in the MB (Western blot, tissue extracts) (SENP-1; midbrain): reduced
PFF-induced SENP-1 in the STR (Western blot, tissue extracts) (SENP-1; striatum): reduced
